Measured values from patent publication US20230085307A1, “PYRIDAZINONE COMPOUND AND HERBICIDE” (NISSAN CHEMICAL CORPORATION, priority 2019, published 2023).

These compounds were tested on Japanese bulrush (assay: Test Example 2: herbicidal activity, application during weed generation under submerged conditions (Table 17, symbol B)). Conditions: AAH 320 g/ha; application during weed generation, submerged conditions.
Assay type: in vivo, Japanese bulrush (Schoenoplectus juncoides)
Summary of the method: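 Herbicide emulsion, diluted with water to the chosen amount, is applied onto 4 cm floodwater over alluvial soil where the weeds were co-sown and raised at 25–30° C. Application timing: 1–2 leaves. Assessment: three weeks afterwards.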

SMILES	herbicidal effect rating, B: Japanese bulrush
Cc1nn(C)c(=O)c(-c2c(-c3ccc(OCC(F)F)cc3)sc3ccccc23)c1O [1-203]	3 (Herbicidal rate of 40% or more and less than 70%)
COCCOCOc1c(C)nn(C)c(=O)c1-c1c(-c2ccc(OCCSC)cc2)sc2ccccc12 [1-221]	3 (Herbicidal rate of 40% or more and less than 70%)

What follows are compounds tested on southern crabgrass (assay: Test Example 5: herbicidal effect by foliage application, plastic box (Table 20, symbol F)). Conditions: foliage application, 320 g/ha, 3 weeks after application.
Assay type: in vivo, southern crabgrass (Digitaria ciliaris)
Summary of the method: (§1)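 Plants sown in sterilized diluvial soil and grown 14 days in a greenhouse at 25° C to 30° C, then sprayed on the foliage with the compound's emulsion diluted in water to a predetermined herbicide amount. Injury to weeds and crops scored three weeks after application on a visual rating scale.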

SMILES	effect on southern crabgrass (F)
Cc1nn(C)c(=O)c(-c2c(-c3ccc(OCC(F)F)cc3)sc3ccccc23)c1O [1-203]	3 (Herbicidal rate of 40% or more and less than 70%)
COCCOCOc1c(C)nn(C)c(=O)c1-c1c(-c2ccc(OCCSC)cc2)sc2ccccc12 [1-221]	5 (Herbicidal rate of 90% or more (almost completely withered))

Each compound was assayed on blackgrass (assay: Test Example 4: herbicidal effect by soil treatment (Table 19, symbol J)). Conditions: AAH 320 g/ha.
Assay type: in vivo, blackgrass (Alopecurus myosuroides)
Summary of the method: (§2)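 Three weeks of greenhouse growth at 25° C. to 30° C. followed a uniform surface spray of water-diluted emulsion at a predetermined herbicide amount. Seeds had been sown beforehand under about 1.5 cm of sterilized diluvial soil. Grading followed criteria set out in an earlier test.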

SMILES	J: blackgrass, herbicidal effect rating
Cc1nn(C)c(=O)c(-c2c(-c3ccc(OCC(F)F)cc3)sc3ccccc23)c1O [1-203]	3 (Herbicidal rate of 40% or more and less than 70%)
COCCOCOc1c(C)nn(C)c(=O)c1-c1c(-c2ccc(OCCSC)cc2)sc2ccccc12 [1-221]	0 (Herbicidal rate of 5% or less (almost no effect))

What follows are compounds tested on oval-leafed pondweed (assay: Test Example 1: herbicidal activity, application before weed generation under submerged conditions (Table 16, symbol C)). Conditions: 320 g/ha applied herbicide.
Assay type: in vivo, oval-leafed pondweed (Monochoria vaginalis)
Summary of the method: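 Emulsion formulation, water-diluted to set dose, was put onto the flooded surface (4 cm depth, alluvial soil) the same day weeds were sown and 2.5-leaf rice transplanted. After 3 weeks at 25-30 °C under glass, each species was rated 0 (≤5% kill) to 5 (≥90% kill).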

SMILES	Herbicidal effect on C: oval-leafed pondweed (grade 0-5)
Cc1nn(C)c(=O)c(-c2c(-c3ccc(OCC(F)F)cc3)sc3ccccc23)c1O [1-203]	4 (Herbicidal rate of 70% or more and less than 90%)
COCCOCOc1c(C)nn(C)c(=O)c1-c1c(-c2ccc(OCCSC)cc2)sc2ccccc12 [1-221]	3 (Herbicidal rate of 40% or more and less than 70%)

What follows are compounds tested on windgrass (assay: Test Example 5: herbicidal effect by foliage application, plastic box (Table 20, symbol L)). Conditions: foliage application, 320 g/ha, 3 weeks after application.
Assay type: in vivo, windgrass (Apera spica-venti)
Summary of the method: as §1

SMILES	effect on windgrass (L)
Cc1nn(C)c(=O)c(-c2c(-c3ccc(OCC(F)F)cc3)sc3ccccc23)c1O [1-203]	4 (Herbicidal rate of 70% or more and less than 90%)
COCCOCOc1c(C)nn(C)c(=O)c1-c1c(-c2ccc(OCCSC)cc2)sc2ccccc12 [1-221]	5 (Herbicidal rate of 90% or more (almost completely withered))

What follows are compounds tested on lambsquarters (assay: Test Example 4: herbicidal effect by soil treatment (Table 19, symbol O)). Conditions: AAH 320 g/ha.
Assay type: in vivo, lambsquarters (Chenopodium album)
Summary of the method: as §2

SMILES	O: lambsquarters, herbicidal effect rating
Cc1nn(C)c(=O)c(-c2c(-c3ccc(OCC(F)F)cc3)sc3ccccc23)c1O [1-203]	5 (Herbicidal rate of 90% or more (almost completely withered))
COCCOCOc1c(C)nn(C)c(=O)c1-c1c(-c2ccc(OCCSC)cc2)sc2ccccc12 [1-221]	4 (Herbicidal rate of 70% or more and less than 90%)

These compounds were tested on velvetleaf (assay: Test Example 4: herbicidal effect by soil treatment (Table 19, symbol M)). Conditions: AAH 320 g/ha.
Assay type: in vivo, velvetleaf (Abutilon theophrasti)
Summary of the method: as §2

SMILES	M: velvetleaf, herbicidal effect rating
Cc1nn(C)c(=O)c(-c2c(-c3ccc(OCC(F)F)cc3)sc3ccccc23)c1O [1-203]	5 (Herbicidal rate of 90% or more (almost completely withered))
COCCOCOc1c(C)nn(C)c(=O)c1-c1c(-c2ccc(OCCSC)cc2)sc2ccccc12 [1-221]	2 (Herbicidal rate of 20% or more and less than 40%)

What follows are compounds tested on chickweed (assay: Test Example 4: herbicidal effect by soil treatment (Table 19, symbol P)). Conditions: AAH 320 g/ha.
Assay type: in vivo, common chickweed (Stellaria media)
Summary of the method: as §2

SMILES	P: chickweed, herbicidal effect rating
Cc1nn(C)c(=O)c(-c2c(-c3ccc(OCC(F)F)cc3)sc3ccccc23)c1O [1-203]	5 (Herbicidal rate of 90% or more (almost completely withered))
COCCOCOc1c(C)nn(C)c(=O)c1-c1c(-c2ccc(OCCSC)cc2)sc2ccccc12 [1-221]	4 (Herbicidal rate of 70% or more and less than 90%)

What follows are compounds tested on velvetleaf (assay: Test Example 5: herbicidal effect by foliage application, plastic box (Table 20, symbol M)). Conditions: foliage application, 320 g/ha, 3 weeks after application.
Assay type: in vivo, velvetleaf (Abutilon theophrasti)
Summary of the method: as §1

SMILES	effect on velvetleaf (M)
Cc1nn(C)c(=O)c(-c2c(-c3ccc(OCC(F)F)cc3)sc3ccccc23)c1O [1-203]	5 (Herbicidal rate of 90% or more (almost completely withered))
COCCOCOc1c(C)nn(C)c(=O)c1-c1c(-c2ccc(OCCSC)cc2)sc2ccccc12 [1-221]	5 (Herbicidal rate of 90% or more (almost completely withered))

What follows are compounds tested on persian speedwell (assay: Test Example 5: herbicidal effect by foliage application, plastic box (Table 20, symbol R)). Conditions: foliage application, 320 g/ha, 3 weeks after application.
Assay type: in vivo, Persian speedwell (Veronica persica)
Summary of the method: as §1

SMILES	effect on persian speedwell (R)
Cc1nn(C)c(=O)c(-c2c(-c3ccc(OCC(F)F)cc3)sc3ccccc23)c1O [1-203]	5 (Herbicidal rate of 90% or more (almost completely withered))
COCCOCOc1c(C)nn(C)c(=O)c1-c1c(-c2ccc(OCCSC)cc2)sc2ccccc12 [1-221]	5 (Herbicidal rate of 90% or more (almost completely withered))

These compounds were tested on lambsquarters (assay: Test Example 5: herbicidal effect by foliage application, plastic box (Table 20, symbol O)). Conditions: foliage application, 320 g/ha, 3 weeks after application.
Assay type: in vivo, lambsquarters (Chenopodium album)
Summary of the method: as §1

SMILES	effect on lambsquarters (O)
Cc1nn(C)c(=O)c(-c2c(-c3ccc(OCC(F)F)cc3)sc3ccccc23)c1O [1-203]	5 (Herbicidal rate of 90% or more (almost completely withered))
COCCOCOc1c(C)nn(C)c(=O)c1-c1c(-c2ccc(OCCSC)cc2)sc2ccccc12 [1-221]	5 (Herbicidal rate of 90% or more (almost completely withered))

The compounds below were run on wild oat (assay: Test Example 4: herbicidal effect by soil treatment (Table 19, symbol I)). Conditions: AAH 320 g/ha.
Assay type: in vivo, wild oat (Avena fatua)
Summary of the method: as §2

SMILES	I: wild oat, herbicidal effect rating
Cc1nn(C)c(=O)c(-c2c(-c3ccc(OCC(F)F)cc3)sc3ccccc23)c1O [1-203]	1 (Herbicidal rate of 5% or more and less than 20%)
COCCOCOc1c(C)nn(C)c(=O)c1-c1c(-c2ccc(OCCSC)cc2)sc2ccccc12 [1-221]	0 (Herbicidal rate of 5% or less (almost no effect))

What follows are compounds tested on green foxtail (assay: Test Example 4: herbicidal effect by soil treatment (Table 19, symbol G)). Conditions: AAH 320 g/ha.
Assay type: in vivo, green foxtail (Setaria viridis)
Summary of the method: as §2

SMILES	G: green foxtail, herbicidal effect rating
Cc1nn(C)c(=O)c(-c2c(-c3ccc(OCC(F)F)cc3)sc3ccccc23)c1O [1-203]	5 (Herbicidal rate of 90% or more (almost completely withered))
COCCOCOc1c(C)nn(C)c(=O)c1-c1c(-c2ccc(OCCSC)cc2)sc2ccccc12 [1-221]	5 (Herbicidal rate of 90% or more (almost completely withered))

The compounds below were run on southern crabgrass (assay: Test Example 4: herbicidal effect by soil treatment (Table 19, symbol F)). Conditions: AAH 320 g/ha.
Assay type: in vivo, southern crabgrass (Digitaria ciliaris)
Summary of the method: as §2

SMILES	F: southern crabgrass, herbicidal effect rating
Cc1nn(C)c(=O)c(-c2c(-c3ccc(OCC(F)F)cc3)sc3ccccc23)c1O [1-203]	4 (Herbicidal rate of 70% or more and less than 90%)
COCCOCOc1c(C)nn(C)c(=O)c1-c1c(-c2ccc(OCCSC)cc2)sc2ccccc12 [1-221]	2 (Herbicidal rate of 20% or more and less than 40%)

What follows are compounds tested on persian speedwell (assay: Test Example 4: herbicidal effect by soil treatment (Table 19, symbol R)). Conditions: AAH 320 g/ha.
Assay type: in vivo, Persian speedwell (Veronica persica)
Summary of the method: as §2

SMILES	R: persian speedwell, herbicidal effect rating
Cc1nn(C)c(=O)c(-c2c(-c3ccc(OCC(F)F)cc3)sc3ccccc23)c1O [1-203]	5 (Herbicidal rate of 90% or more (almost completely withered))
COCCOCOc1c(C)nn(C)c(=O)c1-c1c(-c2ccc(OCCSC)cc2)sc2ccccc12 [1-221]	5 (Herbicidal rate of 90% or more (almost completely withered))

Each compound was assayed on barnyard grass (assay: Test Example 4: herbicidal effect by soil treatment (Table 19, symbol H)). Conditions: AAH 320 g/ha.
Assay type: in vivo, barnyard grass (Echinochloa crus-galli)
Summary of the method: as §2

SMILES	H: barnyard grass, herbicidal effect rating
Cc1nn(C)c(=O)c(-c2c(-c3ccc(OCC(F)F)cc3)sc3ccccc23)c1O [1-203]	5 (Herbicidal rate of 90% or more (almost completely withered))
COCCOCOc1c(C)nn(C)c(=O)c1-c1c(-c2ccc(OCCSC)cc2)sc2ccccc12 [1-221]	3 (Herbicidal rate of 40% or more and less than 70%)
